According to patent US11464854B2, “Methods and compositions relating to adjuvants” (Children's Medical Center Corporation, priority 2017, dated 2022):

Tests used:
[1] = rats
TNF = experiment: Rat pharmacodynamics: serum TNF by ELISA; assay type: in vivo, rats; details: rats, single IM or SC administration
PnPS-specific B cells = experiment: Pneumococcal polysaccharide-specific B cells (ELISpot); assay type: in vivo, rhesus macaques (Macaca mulatta); details: control condition, adjuvant alone
Source text: Characterization of pneumococcal polysaccharide-specific B cells. Rhesus macaque peripheral blood mononuclear cells (PBMCs) were labeled with anti-CD14-PE (clone M5E2), CD20-V450 (clone L27), CD27-PE.Cy7 (clone M-T271), CD4-FITC (clone SK3) Ab's (BD Biosciences). Sorting of CD14+ monocytes, CD20+CD27− naïve B cells, CD20+CD27+ memory B cells, and CD4+Th cells employed a FACSAria™ II cell sorter. Anti-pneumococcal B cells in peripheral blood were enumerated in sorted B cell populations. […] Secreted immunoglobulins were detected using horseradish peroxidase-conjugated goat-anti-rhesus immunoglobulin (Nordic Immunological Laboratories; Eindhoven, The Netherlands). Spots were developed using 3,3′,5,5′-Tetramethylbenzidine (TMB) (Mabtech, Mariemont; OH, USA) and visualized and counted using a series 5 ELISpot™ analyzer (Cellular Technology Limited, Shaker Heights; OH, USA). The fraction of pneumococcal polysaccharide-specific B cells was quantified as the ratio of the spots detected in polysaccharide-coated wells to spots detected in immunoglobulin-coated wells, after correction for dilution.

[2] = Adsorption onto alum derived from DTaP vaccine (RP-HPLC); assay type: physicochemical; details: within 1-2 hr, all circumstances tested
[3] = tested on: FHA (B. pertussis filamentous hemagglutinin); experiment: Adult mouse immunization with Infanrix (DTaP), anti-FHA serum antibody titers; assay type: in vivo, Balb/c mice; details: 14 days post primary and secondary
Procedure: For immunization experiments, both neonate and adult mice were immunized intramuscularly (i.m.) in the posterior thigh with 50 μl of total vaccine dose. For adult mouse studies, Balb/c mice (6-8 weeks of age) were immunized with Infanrix (GSK, 1/100th of the human dose)±CRX649 or CRX-727 at 0.1 μg, 1 μg or 10 μg per mouse in different formulations (aqueous choline salt, liposome or alum pre-adsorbed). Serum was harvested 14 days following prime (14dp1) or boost (14dp2) and anti-FHA serum antibody IgG1 and IgG2a titers were measured by ELISA, as described below. For neonatal mouse studies, 7 day old Balb/c and C57BL/6 mice were immunized with a prime-boost schedule (two injections one week apart, for newborn mice at DOL 7 and 14). Serum was harvested 14 days following boost (14dp2) (day of life 28) and anti-FHA serum total IgG titers, IgG1 and IgG2a/IgG2c were measured by ELISA.
For anti-filamentous hemagglutinin (FHA) ELISAs, Nunc MaxiSorp™ flat bottom 96-well plates (ThermoFisher Scientific) were coated with 5 μg/ml FHA (B. pertussis Filamentous Hemagglutinin, Strain: NCTC 10739, The Native Antigen Company/Cedarlane, Burlington, N.C.) in carbonate buffer pH 9.6, incubated overnight at 4° C., washed 3× with wash buffer (KPL 10× Phosphate Buffered Saline with Tween 20 (Fisher Scientific)) and blocked with Superblock™ (ScyTek) for 1 h at room temperature (RT). […]

[4] = tested on: human neonatal and adult blood; experiment: Human whole blood assay, cytokine induction (CRX adjuvants); assay type: cell-based
Procedure: Human blood was anti-coagulated with 20 units/ml pyrogen-free sodium heparin (American Pharmaceutical Partners, Inc.; Schaumberg, Ill.). All blood products were kept at room temperature and processed within 4 hours from collection. Human whole blood assays were completed as previously described. Briefly, neonatal cord blood or adult whole blood (WB) was mixed 1:1 with sterile pre-warmed (37° C.) RPMI 1640 medium (Invitrogen; Carlsbad, Calif.) and 180-225 μl of the 1:1 suspension was added to each well of a 96 well U-bottom plate (Becton Dickinson; Franklin Lakes, N.J., USA) containing 20-25 μl freshly prepared specific TLRAs at 10× the final concentration. Suspensions containing 200-250 μl/well were gently mixed by pipetting and incubated for 6 hours at 37° C. in a humidified incubator at 5%, CO2. After culture, plates were centrifuged at 500×g and ˜100-150 μl of supernatant was carefully removed by pipetting without disturbing the cell pellet. Supernatants derived from human leukocyte stimulations were assayed by ELISA for TNF and IFNγ (BD Biosciences; San Jose, Calif., USA).
Additionally, for both newborn and adult readouts, cytokine and chemokine expression profiles in cell culture supernatants and peripheral blood plasma were measured using customized Milliplex™ human cytokine/chemokine magnetic bead panels (Millipore; Billerica, Mass., USA). Assays were analyzed on the Luminex® 100/200™ System employing xPOTENT® software (Luminex; Austin, Tex.) and Millipore Milliplex Analyst™ (version 3.5.5.0). The minimum threshold for each analyte was set at the minimum detectable concentration for a given assay, defined as three standard deviations above the mean background. CL075 (TLR8/7) was purchased from InvivoGen (San Diego, Calif.) and used at the concentrations noted in the figure legends.

[5] = 1 μM and 10 μM, newborn over adult whole blood

Compound | 3M-052 in serum ([1]; 0.1 mg/kg, up to 24 hours post-dose) | serum 3M-052 peak ([1]; 1 mg/kg, 4 hour peak) [pmol/mL] | Blood tumor necrosis factor (TNF) concentrations, peak (TNF) | non-specific polysaccharide in vitro activation of B cells (PnPS-specific B cells) [%] | adsorption to the alum/antigen [2] | anti-FHA IgG1 or IgG2a antibody titers [3] | CXCL8, CXCL10, CCL2 and GM-CSF production (multiplex) [4, 5] | production of IL-1β, L-6, IL-10, and IL-12p40 (multiplex) [4, 5] | IFNγ production in newborn blood relative to similarly treated adult blood ([4]; 10 μM) | TNF production in newborn cord blood versus adult ([4]; 6 hours) | IFNγ production ([4]; newborn blood, 10 μM, 6 hours) [pg/mL] | induction of IFNγ ([4]; newborn cord blood, 6 hours)
CCCCCCCCCCCCCCCCCC(=O)NCCCCOn1c(CCCC)nc2c(N)nc3ccccc3c21 [3M-052, N-[4-[(4-amino-2-butyl-1H-imidazo[4,5-c]quinolin-1-yl)oxy]butyl]octadecanamide] | not detectable | ~50 | no induced systemic TNF detectable | ≤ 1.0 |  |  |  |  |  |  |  | 
CCCCc1nc2c(N)nc3ccccc3c2n1CCO [CRX-649] |  |  |  |  | 4-7% | not able to enhance | greater CRX-649 induced production in newborn blood | concentration-dependent production | twice | more than adult-like age-specific potency and effectiveness | ~1200 | greatest potency, effectiveness and IFNγ polarization
